Molecular target: human Cav2.2 (Homo sapiens, UniProt Q00975)
Test: Assessment of calcium channel activity using FLIPR (Ca2+ influx in IMR32 cells)
Type: cell-based
Settings: 2 μM nifedipine, depolarized with 80 mM KCl
Method: (i) In Vitro Methods—Assessment of Calcium Channel Activity Using FLIPR:
The IMR32 cells were maintained in MEM media containing 10% (v/v) FBS, 1% (v/v) antibiotic/antimitotic, 1% (v/v) sodium pyruvate and 1% (v/v) MEM NEAA. Following dissociation in 0.05% (v/v) trypsin/EDTA, cells were seeded into black 1×96-well plates (Corning Cellbind) at a density of 1-1.2×10^5 cells/well and incubated in the maintenance media above for 48 hours at 37° C. […] To determine the IC50 values, the percent inhibition of the compound at each concentration was determined relative to the activity in the absence of inhibitor, and data was fitted using non-linear regression sigmoidal dose response curve analysis with GraphPad Prism®.

[1] = 60 minute pre-incubation with compound
[2] = 3 minute pre-incubation with compound (*)

Chain of human Cav2.2 (Q00975 whole entry): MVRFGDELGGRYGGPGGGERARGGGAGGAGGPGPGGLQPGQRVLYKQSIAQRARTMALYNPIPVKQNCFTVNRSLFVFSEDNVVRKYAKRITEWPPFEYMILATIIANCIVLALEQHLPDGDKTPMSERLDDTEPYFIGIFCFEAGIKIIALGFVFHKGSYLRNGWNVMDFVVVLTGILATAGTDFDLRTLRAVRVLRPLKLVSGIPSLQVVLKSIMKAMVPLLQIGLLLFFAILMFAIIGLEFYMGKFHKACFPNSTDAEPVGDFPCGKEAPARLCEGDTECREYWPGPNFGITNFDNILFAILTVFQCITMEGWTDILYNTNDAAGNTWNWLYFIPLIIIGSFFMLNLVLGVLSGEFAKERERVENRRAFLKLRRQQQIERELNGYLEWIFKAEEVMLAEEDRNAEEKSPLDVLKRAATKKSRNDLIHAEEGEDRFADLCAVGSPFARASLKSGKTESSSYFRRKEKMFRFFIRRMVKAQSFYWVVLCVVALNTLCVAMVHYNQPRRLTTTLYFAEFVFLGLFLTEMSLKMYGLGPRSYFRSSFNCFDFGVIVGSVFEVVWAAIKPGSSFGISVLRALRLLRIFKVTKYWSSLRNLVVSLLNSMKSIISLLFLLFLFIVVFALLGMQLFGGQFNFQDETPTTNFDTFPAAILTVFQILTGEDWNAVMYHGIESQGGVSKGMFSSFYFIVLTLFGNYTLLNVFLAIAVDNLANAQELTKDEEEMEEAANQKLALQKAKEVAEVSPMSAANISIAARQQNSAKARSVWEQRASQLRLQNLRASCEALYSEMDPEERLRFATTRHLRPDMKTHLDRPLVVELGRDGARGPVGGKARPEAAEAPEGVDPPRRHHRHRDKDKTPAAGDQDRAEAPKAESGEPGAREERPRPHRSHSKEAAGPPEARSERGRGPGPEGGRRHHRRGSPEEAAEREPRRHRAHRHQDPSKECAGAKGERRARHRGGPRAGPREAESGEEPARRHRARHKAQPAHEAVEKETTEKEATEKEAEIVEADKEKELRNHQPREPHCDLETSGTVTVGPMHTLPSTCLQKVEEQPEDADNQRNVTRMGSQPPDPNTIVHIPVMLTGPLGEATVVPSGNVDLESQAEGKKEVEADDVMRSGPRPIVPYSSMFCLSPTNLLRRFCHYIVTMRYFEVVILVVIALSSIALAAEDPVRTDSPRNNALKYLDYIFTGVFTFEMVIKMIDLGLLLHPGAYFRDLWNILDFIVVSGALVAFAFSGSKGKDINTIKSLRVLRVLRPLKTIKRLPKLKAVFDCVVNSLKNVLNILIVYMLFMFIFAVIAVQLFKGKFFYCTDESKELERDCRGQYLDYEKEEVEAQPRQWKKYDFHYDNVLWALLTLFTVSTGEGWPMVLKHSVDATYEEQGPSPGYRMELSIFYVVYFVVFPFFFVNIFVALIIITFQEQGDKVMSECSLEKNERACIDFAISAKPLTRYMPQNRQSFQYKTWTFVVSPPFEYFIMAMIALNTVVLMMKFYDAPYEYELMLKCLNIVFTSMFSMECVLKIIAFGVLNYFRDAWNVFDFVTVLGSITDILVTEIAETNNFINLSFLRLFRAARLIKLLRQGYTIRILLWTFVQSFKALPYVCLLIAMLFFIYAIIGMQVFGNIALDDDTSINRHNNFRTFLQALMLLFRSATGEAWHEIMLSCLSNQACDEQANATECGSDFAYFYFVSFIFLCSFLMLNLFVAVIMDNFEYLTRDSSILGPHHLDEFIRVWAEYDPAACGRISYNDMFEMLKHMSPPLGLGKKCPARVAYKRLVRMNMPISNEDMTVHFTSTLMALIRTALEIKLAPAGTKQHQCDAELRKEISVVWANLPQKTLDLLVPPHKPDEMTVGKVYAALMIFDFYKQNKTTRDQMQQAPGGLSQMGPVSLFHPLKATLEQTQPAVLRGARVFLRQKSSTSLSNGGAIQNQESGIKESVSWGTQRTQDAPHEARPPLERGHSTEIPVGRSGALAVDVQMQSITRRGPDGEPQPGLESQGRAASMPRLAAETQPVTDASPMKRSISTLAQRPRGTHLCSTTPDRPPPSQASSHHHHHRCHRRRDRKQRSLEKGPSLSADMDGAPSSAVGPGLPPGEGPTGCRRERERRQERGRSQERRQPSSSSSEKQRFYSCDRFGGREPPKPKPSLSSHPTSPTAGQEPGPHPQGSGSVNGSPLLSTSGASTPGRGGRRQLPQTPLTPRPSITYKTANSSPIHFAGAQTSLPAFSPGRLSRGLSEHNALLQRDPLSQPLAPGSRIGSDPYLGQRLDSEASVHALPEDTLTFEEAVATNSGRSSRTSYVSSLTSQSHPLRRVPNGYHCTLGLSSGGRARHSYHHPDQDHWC
Chain of human Cav2.2 (P54289 25-946 partner limits assumed): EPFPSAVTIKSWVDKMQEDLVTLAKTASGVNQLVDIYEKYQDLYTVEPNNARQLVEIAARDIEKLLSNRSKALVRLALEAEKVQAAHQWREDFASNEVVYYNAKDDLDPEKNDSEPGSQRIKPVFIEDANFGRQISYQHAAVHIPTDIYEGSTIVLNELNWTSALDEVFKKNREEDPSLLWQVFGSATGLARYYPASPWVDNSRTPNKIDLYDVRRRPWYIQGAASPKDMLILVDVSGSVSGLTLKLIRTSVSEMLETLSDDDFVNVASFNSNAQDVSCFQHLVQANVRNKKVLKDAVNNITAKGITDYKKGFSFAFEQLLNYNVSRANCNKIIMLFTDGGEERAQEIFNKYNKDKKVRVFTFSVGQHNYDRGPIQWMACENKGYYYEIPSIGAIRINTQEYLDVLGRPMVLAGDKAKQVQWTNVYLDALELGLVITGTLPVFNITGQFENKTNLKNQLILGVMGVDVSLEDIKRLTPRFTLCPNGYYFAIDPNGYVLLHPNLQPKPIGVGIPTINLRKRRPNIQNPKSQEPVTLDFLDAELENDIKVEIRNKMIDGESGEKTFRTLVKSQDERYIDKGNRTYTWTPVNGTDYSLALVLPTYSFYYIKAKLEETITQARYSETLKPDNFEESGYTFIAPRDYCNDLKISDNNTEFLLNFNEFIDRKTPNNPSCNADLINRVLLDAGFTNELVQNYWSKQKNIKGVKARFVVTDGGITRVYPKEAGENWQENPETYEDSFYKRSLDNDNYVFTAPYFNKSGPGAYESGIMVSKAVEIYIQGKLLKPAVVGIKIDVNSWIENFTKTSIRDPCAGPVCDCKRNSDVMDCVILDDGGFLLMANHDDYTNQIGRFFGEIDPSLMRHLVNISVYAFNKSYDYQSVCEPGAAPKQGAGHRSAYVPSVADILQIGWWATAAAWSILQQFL
Chain of human Cav2.2 (P54289 947-1103 partner limits assumed): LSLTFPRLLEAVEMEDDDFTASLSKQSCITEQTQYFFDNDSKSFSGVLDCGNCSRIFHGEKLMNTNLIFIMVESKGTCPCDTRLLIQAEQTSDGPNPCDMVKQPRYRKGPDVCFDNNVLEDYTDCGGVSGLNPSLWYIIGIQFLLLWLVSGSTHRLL
Chain of human Cav2.2 (P54284 whole entry partner): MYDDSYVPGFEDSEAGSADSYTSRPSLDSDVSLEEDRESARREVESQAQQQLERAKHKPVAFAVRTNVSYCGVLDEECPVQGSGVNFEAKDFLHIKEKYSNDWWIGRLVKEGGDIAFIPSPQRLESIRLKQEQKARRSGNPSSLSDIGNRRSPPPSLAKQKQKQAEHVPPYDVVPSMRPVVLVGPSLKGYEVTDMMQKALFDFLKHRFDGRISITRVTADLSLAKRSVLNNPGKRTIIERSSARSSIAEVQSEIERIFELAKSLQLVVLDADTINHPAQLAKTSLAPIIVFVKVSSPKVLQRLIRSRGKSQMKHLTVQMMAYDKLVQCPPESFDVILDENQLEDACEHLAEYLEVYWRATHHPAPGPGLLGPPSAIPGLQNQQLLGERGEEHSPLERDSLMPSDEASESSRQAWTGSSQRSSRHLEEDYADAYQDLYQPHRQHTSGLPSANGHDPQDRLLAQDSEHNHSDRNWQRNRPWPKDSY

SMILES	IC50 [1] [nM]	IC50 [2] [nM]
O=C(N[C@@H]1CC[C@H]2CN(Cc3ccc(C(F)(F)F)cc3)C[C@H]21)[C@@H]1CCCCN1 [Example 370, (2S)—N-{(3aS,4R,6aR)-2-[4-(trifluoromethyl)benzyl]octahydrocyclopenta[c]pyrrol-4-yl}piperidine-2-carboxamide]	6020	
CCC[C@@H](C(=O)N[C@H]1CC[C@H]2CN(Cc3ccccc3)C[C@H]21)N(C)C(=O)OC(C)(C)C [Example 238, tert-butyl(S)-1-((3aS,4S,6aR)-2-benzyloctahydrocyclopenta[c]pyrrol-4-ylamino)-1-oxopentan-2-yl(methyl)carbamate]	5730	
CCCC(CCC)C(=O)N[C@H]1CC[C@H]2CN(Cc3cccc(C(F)(F)F)c3)C[C@H]21 (relative stereo) [Example 126, 2-propyl-N-{(3aS*,4S*,6aR*)-2-[3-(trifluoromethyl)benzyl]octahydrocyclopenta[c]pyrrol-4-yl}pentanamide]	1000	
O=C(N[C@H]1CC[C@H]2CN(S(=O)(=O)CCc3ccc(F)cc3)C[C@H]21)C(C1CCCCC1)C1CCCCC1 [Example 209, 2,2-dicyclohexyl-N-((3aS,4S,6aR)-2-{[2-(4-fluorophenyl)ethyl]sulfonyl}octahydrocyclopenta[c]pyrrol-4-yl)acetamide]	> 100000	
O=C(N[C@@H]1CC[C@H]2CN(Cc3ccccc3)C[C@H]21)C1(c2ccccc2)CCCCC1 [Example 24, N-[(3aS,4R,6aR)-2-benzyloctahydrocyclopenta[c]pyrrol-4-yl]-1-phenylcyclohexanecarboxamide]		2900
CC(C)C(C(=O)N[C@H]1CC[C@@H]2CN(Cc3ccc(C(F)(F)F)c(F)c3)C[C@@H]21)c1ccccc1 (stereo partly drawn) [Example 101, N-{(3aR,4S,6aS)-2-[3-fluoro-4-(trifluoromethyl)benzyl]octahydrocyclopenta[c]pyrrol-4-yl}-3-methyl-2-phenylbutanamide]		4700
O=C(N[C@H]1CC[C@H]2CN(CCCCCC(c3ccc(F)cc3)c3ccc(F)cc3)C[C@H]21)C(C1CCCCC1)C1CCCCC1 [Example 66, N-{(3aS,4S,6aR)-2-[6,6-bis(4-fluorophenyl)hexyl]octahydrocyclopenta[c]pyrrol-4-yl}-2,2-dicyclohexylacetamide]	900	
O=C(N[C@H]1CC[C@H]2CN(Cc3cccc(C(F)(F)F)c3)C[C@H]21)C(C1CCCCC1)C1CCCCC1 (relative stereo) [Example 124, 2,2-dicyclohexyl-N-{(3aS*,4S*,6aR*)-2-[3-(trifluoromethyl)benzyl]octahydrocyclopenta[c]pyrrol-4-yl}acetamide]	700	
CC(C)C[C@@H](C(=O)N[C@H]1CC[C@@H]2CN(Cc3cccc(C(F)(F)F)c3)C[C@@H]21)N(C)C(=O)OC(C)(C)C [Example 307, tert-butyl methyl((S)-4-methyl-1-oxo-1-((3aR,4S,6aS)-2-(3-(trifluoromethyl)benzyl)octahydrocyclopenta[c]pyrrol-4-ylamino)pentan-2-yl)carbamate]	1540	
CC(C)(C)C[C@H](NC(=O)OC(C)(C)C)C(=O)N[C@H]1CC[C@@H]2CN(c3ccc(C(F)(F)F)cn3)C[C@@H]21 [Example 262, tert-butyl(S)-4,4-dimethyl-1-oxo-1-((3aR,4S,6aS)-2-(5-(trifluoromethyl)pyridin-2-yl)octahydrocyclopenta[c]pyrrol-4-ylamino)pentan-2-ylcarbamate]	1800	
O=C(N[C@H]1CC[C@@H]2CN(Cc3ccccc3)C[C@@H]21)C1(c2ccccc2)CC1 [Example 48, N-[(3aR,4S,6aS)-2-benzyloctahydrocyclopenta[c]pyrrol-4-yl]-1-phenylcyclopropanecarboxamide]		10500
CC(C)N[C@@H](CC(C)(C)C)C(=O)N1C[C@H]2CC[C@H](NC(=O)C(c3ccc(F)cc3)c3ccc(F)cc3)[C@H]2C1 [Example 492, 2,2-bis(4-fluorophenyl)-N-[(3aR,4S,6aS)-2-(N-isopropyl-4-methyl-L-leucyl)octahydrocyclopenta[c]pyrrol-4-yl]acetamide]	2000	
CC(C)C(C(=O)N[C@H]1CC[C@@H]2CN(Cc3ccccc3)C[C@@H]21)c1ccccc1 (relative stereo) [Example 6, N-[(3aR*,4S*,6aS*)-2-benzyloctahydrocyclopenta[c]pyrrol-4-yl]-3-methyl-2-phenylbutanamide]		2200
O=C(N[C@H]1CC[C@H]2CN(Cc3ccccc3)C[C@H]21)C(c1ccccc1)C1CCCC1 (relative stereo) [Example 7, N-[(3aS*,4S*,6aR*)-2-benzyloctahydrocyclopenta[c]pyrrol-4-yl]-2-cyclopentyl-2-phenylacetamide]		1800
CC(C)C[C@@H](C(=O)N[C@@H]1CC[C@H]2CN(C(=O)c3cccc(C(F)(F)F)c3)C[C@H]21)N1CCCC1 [Example 345, (2S)-4-methyl-2-pyrrolidin-1-yl-N-{(3aS,4R,6aR)-2-[3-(trifluoromethyl)benzoyl]octahydrocyclopenta[c]pyrrol-4-yl}pentanamide]	4320	
CC(C)OC(=O)N[C@H](C(=O)N[C@H]1CC[C@@H]2CN(Cc3ccc(C(F)(F)F)cc3)C[C@@H]21)C(C)(C)C [Example 526, Isopropyl (S)-3,3-dimethyl-1-oxo-1-((3aR,4S,6aS)-2-(4-(trifluoromethyl)benzyl)octahydrocyclopenta[c]pyrrol-4-ylamino)butan-2-ylcarbamate]	2770	

The next lines start with the values.

IC50 [1] [nM]	IC50 [2] [nM]	SMILES
1030		CCCN[C@@H](CC(C)(C)C)C(=O)N[C@H]1CC[C@@H]2CN(S(=O)(=O)c3ccc(C(F)(F)F)cc3)C[C@@H]21 [Example 470, 4-methyl-N^2-propyl-N^1-((3aR,4S,6aS)-2-{[4-(trifluoromethyl)phenyl]sulfonyl}octahydrocyclopenta[c]pyrrol-4-yl)-L-leucinamide]
4530		CC(C)[C@H](N)CC(=O)N[C@H]1CC[C@@H]2CN(S(=O)(=O)c3cccc(C(F)(F)F)c3)C[C@@H]21 [Example 388, (3R)-3-amino-4-methyl-N-((3aR,4S,6aS)-2-{[3-(trifluoromethyl)phenyl]sulfonyl}octahydrocyclopenta[c]pyrrol-4-yl)pentanamide]
580		CN[C@@H](CC(C)(C)C)C(=O)N[C@H]1CC[C@@H]2CN(S(=O)(=O)c3ccc(C(F)(F)F)cc3Cl)C[C@@H]21 [Example 431, N^1-((3aR,4S,6aS)-2-{[2-chloro-4-(trifluoromethyl)phenyl]sulfonyl}octahydrocyclopenta[c]pyrrol-4-yl)-N^2,4-dimethyl-L-leucinamide]
800		CN[C@H](C(=O)N[C@H]1CC[C@@H]2CN(S(=O)(=O)c3ccc(C(F)(F)F)cc3)C[C@@H]21)C(C)C [Example 451, N^2-methyl-N^1-((3aR,4S,6aS)-2-{[4-(trifluoromethyl)phenyl]sulfonyl}octahydrocyclopenta[c]pyrrol-4-yl)-L-valinamide]
5330		CCC[C@H](NC)C(=O)N[C@H]1CC[C@H]2CN(S(=O)(=O)c3ccc(C(F)(F)F)cc3)C[C@H]21 [Example 456, N^2-methyl-N^1-((3aS,4S,6aR)-2-{[4-(trifluoromethyl)phenyl]sulfonyl}octahydrocyclopenta[c]pyrrol-4-yl)-L-norvalinamide]
1740		CC(C)(C)C[C@H](NCC1CCCC1)C(=O)N[C@H]1CC[C@@H]2CN(S(=O)(=O)c3ccc(C(F)(F)F)cc3)C[C@@H]21 [Example 474, N^2-(cyclopentylmethyl)-4-methyl-N^1-((3aR,4S,6aS)-2-{[4-(trifluoromethyl)phenyl]sulfonyl}octahydrocyclopenta[c]pyrrol-4-yl)-L-leucinamide]
480		CC[C@H](C)[C@@H](C(=O)N[C@H]1CC[C@@H]2CN(S(=O)(=O)c3cccc(C(F)(F)F)c3)C[C@@H]21)N(C)C(=O)OC(C)(C)C [Example 332, tert-butyl methyl((2S,3S)-3-methyl-1-oxo-1-((3aR,4S,6aS)-2-(3-(trifluoromethyl)phenylsulfonyl)octahydrocyclopenta[c]pyrrol-4-ylamino)pentan-2-yl)carbamate]
1390		CC(C)OC(=O)N[C@@H](CC(C)(C)C)C(=O)N[C@H]1CC[C@@H]2CN(Cc3ccc(C(F)(F)F)cc3)C[C@@H]21 [Example 525, Isopropyl (S)-4,4-dimethyl-1-oxo-1-((3aR,4S,6aS)-2-(4-(trifluoromethyl)benzyl)octahydrocyclopenta[c]pyrrol-4-ylamino)pentan-2-ylcarbamate]
2030		CCCC[C@H](NC)C(=O)N[C@H]1CC[C@@H]2CN(S(=O)(=O)c3ccc(F)cc3)C[C@@H]21 [Example 454, N^1-{(3aR,4S,6aS)-2-[(4-fluorophenyl)sulfonyl]octahydrocyclopenta[c]pyrrol-4-yl}-N^2-methyl-L-norleucinamide]
2290		CCC[C@H](NC(=O)OC1CCCC1)C(=O)N[C@H]1CC[C@@H]2CN(Cc3ccc(C(F)(F)F)cc3)C[C@@H]21 [Example 527, Cyclopentyl (S)-1-oxo-1-((3aR,4S,6aS)-2-(4-(trifluoromethyl)benzyl)octahydrocyclopenta[c]pyrrol-4-ylamino)pentan-2-ylcarbamate]
1110		CN(C(=O)OC(C)(C)C)[C@@H](CC(C)(C)C)C(=O)N[C@@H]1CC[C@H]2CN(S(=O)(=O)c3ccc(C(F)(F)F)cc3)C[C@H]21 [Example 339, tert-butyl(S)-4,4-dimethyl-1-oxo-1-((3aS,4R,6aR)-2-(4-(trifluoromethyl)phenylsulfonyl)octahydrocyclopenta[c]pyrrol-4-ylamino)pentan-2-yl(methyl)carbamate]
1270		CC(C)(C)C[C@H](NCC1CCC1)C(=O)N[C@H]1CC[C@@H]2CN(S(=O)(=O)c3ccc(C(F)(F)F)cc3)C[C@@H]21 [Example 472, N^2-(cyclobutylmethyl)-4-methyl-N^1-((3aR,4S,6aS)-2-{[4-(trifluoromethyl)phenyl]sulfonyl}octahydrocyclopenta[c]pyrrol-4-yl)-L-leucinamide]

— US8129417B2, “Substituted octahydrocyclopenta[C]pyrrol-4-amines as calcium channel blockers” (Abbott Laboratories, priority 2008, dated 2012)
